Measurements from PMC9131871, “Impact of Micropolymorphism Outside the Peptide Binding Groove in the Clinically Relevant Allele HLA-C*14 on T Cell Responses in HIV-1 Infection” (Journal of Virology, 2022).

Experiments:
HLA-C*14:03 = HLA-C*14:03 (Homo sapiens, UniProt P10321, A176E/A330V/A35S/A97T/C350S/D114A/D33S/L171W/L180R/L218V/M285V/M309V/M331V/P208H/Q277E/Q291P/R121W/R243W/R45H/S123F/S297R/S48A/T329A/T363A/V319A); assay: HLA stabilization assay on RMA-S-C1403 cells; format: cell-based; conditions: 100 μM peptide, 26°C 1 h then 37°C 3 h, MAb DT-9 staining, flow cytometry, triplicate assays
From the text: (§1) We next sought to confirm the HLA-C*14:02/C*14:03 restriction of the HIV-1 peptides identified by LC-MS/MS. First, we tested their ability to bind to HLA-C*14:02 or HLA-C*14:03 using HLA stabilization assays. Of the 25 HIV-1 peptides, three Env peptides, Env SI8, Env AM11, and Env VM9, are located in variable regions V2 and V3. In addition, Pol AF10, Pol PF8, Pol VWL9, and Env YI9 are located in regions where high sequence variation is reported in the LANL database. Therefore, we excluded these peptides from further analysis. The other 18 peptides were synthesized and tested for binding to HLA-C*14:02/C*14:03 by analyzing their ability to stabilize surface HLA expression on TAP-defective RMA-S cell lines expressing HLA-C*14:02 (RMA-S-C1402) or HLA-C*14:03 (RMA-S-C1403). These RMA-S cell lines express equivalent levels of HLA-C*14:02 and HLA-C*14:03 on the cell surface at 26°C, and surface HLA expression declines to very low levels when the cells are warmed to 37°C in the absence of exogenously added stabilizing peptides (Fig. 2A). Peptide binding was determined by evaluating whether HLA-I expression was stabilized in the presence of 100 μM peptide.
(§2) FIG 2 HLA-C*14:02/14:03 binding of HIV-1 peptides eluted from NL4-3-infected .221-C1402 and .221-C1403 cells as assessed by HLA stabilization assay using RMA-S cell lines. (A) Histogram plots showing surface expression of HLA-C*14:02 or HLA-C*14:03 on RMA-S-C1402 or RMA-S-C1403 cells at 26°C and after cells cultured at 26°C had been warmed to 37°C for 3 h. MFI values of cells cultured at 26°C were 27.4 for HLA-C*14:02 and 28.1 for HLA-C*14:03. MFI values of cells cultured at 37°C for 3 h were 5.0 for HLA-C*14:02 and 6.54 for HLA-C*14:03. (B) Analysis of binding of 14 HIV-1 NL4.3 peptides identified by LC-MS/MS to HLA-C*14:02 (blue) or HLA-C*14:03 (red) as measured in HLA class I stabilization assays using RMA-S-C1402 or RMA-S-C1403 cells. (C) Analysis of binding of 9 additional variant peptides to HLA-C*14:02 (blue) or C*14:03 (red). For panels B and C, peptides were tested at a concentration of 100 μM. Results are plotted as percent surface HLA-I expression relative to that at 26°C, calculated as the ratio of the MFI of peptide-pulsed RMA-S-C1402 or RMA-S-C1403 cells to that of control (non-peptide-pulsed) cells kept at 26°C, multiplied by 100. Means and standard deviations (SDs) from triplicate assays are shown. Statistical analyses were performed by unpaired t test. The P values were corrected for multiple testing. *, P < 0.05 and q < 0.05; **, P < 0.01 and q < 0.03; ***, P < 0.001 and q < 0.005.
(§3) The relative affinity of peptide binding to HLA-C*14:02 and -C*14:03 was examined using RMA-S-C1402 and RMA-S-C1403 cells as previously described ([15]). Briefly, RMA-S cells were cultured at 26°C for 16 h, pulsed with peptides at 26°C for 1 h, and subsequently incubated at 37°C for 3 h. Staining of cell surface HLA-C molecules was performed with the HLA-C-reactive monoclonal antibody (MAb) DT-9 ([48]), a gift from Mary Carrington, NIH, and fluorescein isothiocyanate (FITC)-conjugated sheep anti-mouse IgG (Jackson ImmunoResearch). Staining data were acquired on a FACSCanto II instrument (BD Biosciences) and analyzed using FlowJo 10.7.1 software. Relative HLA expression was calculated as the ratio of the mean fluorescence intensity (MFI) of peptide-pulsed RMA-S-C1402 cells or RMA-S-C1403 cells to that of control (non-peptide-pulsed) cells kept at 26°C, multiplied by 100 to express the values for peptide-pulsed cells as a percentage of that for the control cells at 26°C.

HLA-C*14:02 = HLA-C*14:02 (Homo sapiens, UniProt P10321, A176E/A330V/A35S/A97T/C350S/D114A/D33S/L171W/L180R/L218V/M285V/M309V/M331V/P208H/Q277E/Q291P/R121W/R243W/S123F/S297R/S48A/T329A/T363A/V319A); assay: HLA stabilization assay on RMA-S-C1402 cells; format: cell-based; conditions: 100 μM peptide, 26°C 1 h then 37°C 3 h, MAb DT-9 staining, flow cytometry, triplicate assays
From the text: as §1, §2, §3

[1] = tested on: T cells of a volunteer enrolled in an HIV vaccine trial; conditions: cited from earlier work
From the text: We identified 6 HLA-C*14:02/C*14:03 epitopes in the present study. Five of these peptides were detected by LC-MS/MS in HLA-I eluates from both HLA-C*14:02^+ and HLA-C*14:03^+ .221 cells infected with HIV-1, and T cells specific for all 6 epitopes effectively recognized both HIV-1-infected HLA-C*14:02^+ and HLA-C*14:03^+ .221 cells. […] Responses to two of these peptides, Gag LY9 and Nef YT9, were identified in a previous study that analyzed T cell responses ...

Sequence	binding to HLA-C*14:03 (stabilization of surface HLA expression) (HLA-C*14:03)	binding to HLA-C*14:02 (stabilization of surface HLA expression) (HLA-C*14:02)	HLA-C*14-restricted HIV-1 epitope status [1]
FHHMAREK [NefFL8-4M8K, variant of Nef FL8, FHHMAREK, present in Japanese cohort viruses]	detectable binding to the HLA-C*14 molecules with the exception of NefFL8-4M8K	detectable binding to the HLA-C*14 molecules with the exception of NefFL8-4M8K	–
LYNTVATL [Gag LL8-5V7T]	–	–	identified as an HLA-C*14-restricted HIV-1 epitope
